Measurements as given in patent US8334239B2, “High affinity VEGF-receptor antagonists” (The Board of Regents of the University of Texas System, priority 2007, dated 2012).
Entries after “also recorded” stand apart in the source; their conditions may differ. Positions of bridges follow the written chain, without caps; N, C: chain ends. Non-standard residues stand in square brackets, D forms with d. Residues, ends and D or L forms follow the SMILES beside them. Chains are numbered I, II in the order given. *: point of attachment. Fluorescein(5-Mal) = O=C1OC2(c3ccc(O)cc3Oc3cc(O)ccc32)c2ccc(N3C(=O)CC(*)C3=O)cc21; Gly(N(CH2)2(3-indolyl)) = O=C(O)CNCCc1c[nH]c2ccccc12; Gly(N-piperonyl) = O=C(O)CNCc1ccc2c(c1)OCO2; Nrpe = C[C@@H](NCC(=O)O)c1ccccc1; NFurfurylGly = O=C(O)CNCc1ccco1; Nleu = CC(C)CNCC(=O)O; Nlys = NCCCCNCC(=O)O; Ahx = NCCCCCC(=O)O; βAla = NCCC(=O)O

Tests used:
[1] = target: T1, VEGFR2 (Homo sapiens, UniProt P35968); assay: ELISA-like binding assay, fluoresceinated peptoids on immobilized VEGFR2 extracellular domain; parameters: VEGFR2 extracellular domain (amino acids 1-764 fused to 6× histidine-tagged Fc of human IgG, via the peptide IEGRMD; R&D Systems); linker peptide IEGRMD (internal); Fc of human IgG (C); 6xHis (C); purchased R&D Systems; conditions: for Fold improved: binding improved compared to the monomer of the series
Experimental: ELISA based binding assay. White, clear bottom 96-well plates (Corning Inc.) were coated with of 1 μg/ml recombinant human VEGFR2 protein (R&D Systems) using the sensitizing buffer (0.621 g NaHCO3 & 0.275 g Na2CO3 dissolved on 100 ml of ddH2O, pH=9.5) overnight at 4° C. Washed with 3×200 μl of wash buffer 1×PBS with 0.05% Tween-20 and blocked with Startingblock blocking buffer (Pierce). Added 50 μl of serial dilutions of FITC labeled peptoids dissolved in Startingblock blocking buffer to each well & allowed to react for 1 h at room temperature. Washed with 5×200 μl of wash buffer 1×PBS with 0.05% Tween-20 and remaining fluorescence was measured at 520 nm using the plate reader.
The isolated peptoids are VEGFR2 ligands. Two of the ‘hits’ from this screen, GU40C and GU40E (see FIG. 2) were resynthesized, both as free compounds and with C-terminal Cys (for C-terminal fluorescein tagging via maleimide chemistry), cleaved from the beads and purified to apparent homogeneity by reverse phase HPLC. […] The association of these peptoids with VEGFR2 was evaluated using an ELISA-like assay. A commercially available fusion protein containing the VEGFR2 extracellular domain (amino acids 1-764 fused to 6× histidine-tagged Fc of human IgG, via the peptide IEGRMD; R&D Systems) was plated into 96-well plates and then mixed with various concentrations of […] Fluorescein (FITC)-labeled peptoid. After washing away unbound peptoid, the remaining fluorescence emission signal was measured at 520 nm. In this assay purified VEGFR2 protein was used instead of the whole PAE/KDR cells that over express VEGFR2, in order to confirm these compounds were binding only to the receptor.
Target sequence in this assay (P35968 20-764): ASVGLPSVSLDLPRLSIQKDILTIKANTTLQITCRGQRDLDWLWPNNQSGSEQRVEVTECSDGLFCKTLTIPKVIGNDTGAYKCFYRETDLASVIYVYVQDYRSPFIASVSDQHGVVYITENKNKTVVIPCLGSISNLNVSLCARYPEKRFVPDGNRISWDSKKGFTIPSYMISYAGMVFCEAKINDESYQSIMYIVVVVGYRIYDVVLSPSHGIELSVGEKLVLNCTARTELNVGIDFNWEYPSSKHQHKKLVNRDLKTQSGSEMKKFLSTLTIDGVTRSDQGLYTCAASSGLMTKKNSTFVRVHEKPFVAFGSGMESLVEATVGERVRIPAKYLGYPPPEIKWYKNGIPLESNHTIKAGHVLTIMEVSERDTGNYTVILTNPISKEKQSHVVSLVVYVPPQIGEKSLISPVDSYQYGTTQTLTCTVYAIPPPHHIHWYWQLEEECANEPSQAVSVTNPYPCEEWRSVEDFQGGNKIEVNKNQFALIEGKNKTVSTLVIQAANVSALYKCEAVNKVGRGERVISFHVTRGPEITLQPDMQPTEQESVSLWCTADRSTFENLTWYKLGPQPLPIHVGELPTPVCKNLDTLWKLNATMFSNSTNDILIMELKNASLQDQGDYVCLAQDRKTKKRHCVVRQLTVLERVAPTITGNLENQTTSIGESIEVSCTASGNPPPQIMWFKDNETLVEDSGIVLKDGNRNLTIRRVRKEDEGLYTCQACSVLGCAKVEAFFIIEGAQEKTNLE

[2] = target: T2, CD105 (Homo sapiens, UniProt P17813); assay: ELISA-like binding assay on immobilized CD105; conditions: same ELISA-like assay
T2 sequence (P17813 26-658): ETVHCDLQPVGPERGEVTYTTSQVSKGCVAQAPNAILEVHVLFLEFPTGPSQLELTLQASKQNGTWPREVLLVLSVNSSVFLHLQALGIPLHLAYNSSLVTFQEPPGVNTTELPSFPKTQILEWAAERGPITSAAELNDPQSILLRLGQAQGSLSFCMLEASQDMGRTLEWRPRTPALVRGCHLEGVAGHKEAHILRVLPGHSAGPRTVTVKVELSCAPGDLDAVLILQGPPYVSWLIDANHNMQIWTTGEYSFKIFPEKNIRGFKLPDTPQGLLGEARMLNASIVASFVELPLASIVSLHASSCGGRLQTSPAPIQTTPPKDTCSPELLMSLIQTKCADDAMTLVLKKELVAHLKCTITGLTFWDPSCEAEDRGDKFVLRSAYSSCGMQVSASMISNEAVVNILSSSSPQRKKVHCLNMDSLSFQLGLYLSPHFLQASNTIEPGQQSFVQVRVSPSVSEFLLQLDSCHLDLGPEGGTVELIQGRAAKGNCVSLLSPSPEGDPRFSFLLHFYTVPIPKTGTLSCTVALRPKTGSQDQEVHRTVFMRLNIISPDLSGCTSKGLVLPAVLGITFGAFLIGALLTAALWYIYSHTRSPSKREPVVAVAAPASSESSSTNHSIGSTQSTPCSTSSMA

[3] = system: GST; assay: ELISA-like binding assay on immobilized GST
[4] = target: T1, VEGFR2; assay: VEGF-induced VEGFR2 autophosphorylation in PAE/KDR cells, Western blot; type: cell-based; parameters: allow the library to be screened against the full-length receptor in as natural an environment as possible; host or cells: PAE/KDR (porcine aortic endothelial cells expressing human KDR); conditions: for agonist activity on VEGFR2 phosphorylation: PAE/KDR cells, Western blot; for effect on VEGF-induced VEGFR2 phosphorylation (in words): monomeric peptoids, 500 μM
Experimental: Western blots. Experiments were conducted using PAE/KDR cells that were grown on 6-well plates. […] The blots were probed with Phospho-VEGF receptor 2 (Tyr1175) (19A10) rabbit monoclonal or Total VEGFR2 primary antibodies (Cell signaling) and HRP-conjugated secondary antibody (BioRad).
Functional characterization of the VEGFR2-binding peptoids. GU40C and GU40E were then tested for their ability to modulate VEGFR function. Of course, since the screen simply demanded binding of the peptoid to the receptor, it was not a given that this would be the case. […] Western blot analysis using phospho-VEGFR2-specific antibodies was then employed to monitor receptor activation.
To do so, the inventors examined the effect of the peptoid on VEGF-induced VEGFR2 autophosphorylation by Western blotting, as described earlier.
Target sequence in this assay (P35968 20-1356): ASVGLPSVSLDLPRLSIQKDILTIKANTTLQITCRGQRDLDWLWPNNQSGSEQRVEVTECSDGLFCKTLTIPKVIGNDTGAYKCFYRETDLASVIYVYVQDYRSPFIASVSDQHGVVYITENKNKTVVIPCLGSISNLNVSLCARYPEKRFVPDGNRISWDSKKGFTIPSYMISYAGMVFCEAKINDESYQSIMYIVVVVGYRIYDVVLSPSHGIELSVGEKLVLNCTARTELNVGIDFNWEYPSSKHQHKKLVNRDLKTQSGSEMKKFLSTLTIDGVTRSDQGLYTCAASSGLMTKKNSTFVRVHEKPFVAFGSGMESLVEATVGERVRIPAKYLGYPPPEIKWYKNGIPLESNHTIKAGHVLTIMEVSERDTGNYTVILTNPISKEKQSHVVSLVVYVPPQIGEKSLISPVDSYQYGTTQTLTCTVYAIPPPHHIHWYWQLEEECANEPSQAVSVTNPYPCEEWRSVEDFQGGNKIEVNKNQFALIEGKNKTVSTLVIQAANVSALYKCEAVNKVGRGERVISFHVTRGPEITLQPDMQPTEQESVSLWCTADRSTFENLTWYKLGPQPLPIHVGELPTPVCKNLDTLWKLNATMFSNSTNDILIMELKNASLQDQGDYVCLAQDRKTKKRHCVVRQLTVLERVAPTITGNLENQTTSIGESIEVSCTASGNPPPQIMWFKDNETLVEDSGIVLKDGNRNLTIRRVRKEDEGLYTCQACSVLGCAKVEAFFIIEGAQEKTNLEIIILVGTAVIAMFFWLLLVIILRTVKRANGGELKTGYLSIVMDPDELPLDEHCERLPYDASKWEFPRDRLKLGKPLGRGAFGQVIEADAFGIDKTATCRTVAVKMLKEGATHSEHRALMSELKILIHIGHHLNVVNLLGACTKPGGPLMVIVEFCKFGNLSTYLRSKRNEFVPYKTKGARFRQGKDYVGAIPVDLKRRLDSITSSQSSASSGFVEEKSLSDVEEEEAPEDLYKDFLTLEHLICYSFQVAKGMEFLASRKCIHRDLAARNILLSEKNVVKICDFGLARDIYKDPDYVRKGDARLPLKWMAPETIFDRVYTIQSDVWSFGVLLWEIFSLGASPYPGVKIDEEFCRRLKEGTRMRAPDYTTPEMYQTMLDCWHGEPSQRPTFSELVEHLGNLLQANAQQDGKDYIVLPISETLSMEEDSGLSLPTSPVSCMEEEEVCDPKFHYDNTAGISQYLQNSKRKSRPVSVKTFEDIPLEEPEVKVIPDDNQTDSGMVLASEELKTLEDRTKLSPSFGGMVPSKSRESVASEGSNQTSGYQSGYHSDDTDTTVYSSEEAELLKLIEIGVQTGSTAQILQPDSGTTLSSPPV

Molecule | Fold improved [1] [fold] | agonist activity on VEGFR2 phosphorylation [4] | effect on VEGF-induced VEGFR2 phosphorylation (in words) ([4]; 1.3 nM VEGF) | other results
CC(C)CN(CC(=O)N(CCCCN)CC(=O)N(CC(=O)N(CC(=O)N(CCCCN)CC(=O)N(CC(=O)N(CCCCN)CC(=O)N(CCCCN)CC(=O)NCCCC[C@H](NC(=O)CCNC(=O)CN(CCCCN)C(=O)CN(CCCCN)C(=O)CN(CC(C)C)C(=O)CN(CCCCN)C(=O)CN(Cc1ccc2c(c1)OCO2)C(=O)CN(C(=O)CN(CCCCN)C(=O)CN(CC(C)C)C(=O)CNCCCCN)[C@H](C)c1ccccc1)C(=O)N[C@@H](CSC1CC(=O)N(c2ccc3c(c2)C(=O)OC32c3ccc(O)cc3Oc3cc(O)ccc32)C1=O)C(N)=O)CC(C)C)Cc1ccc2c(c1)OCO2)[C@H](C)c1ccccc1)C(=O)CNCCCCN (some centres unmarked) [GU40C2] (I: H-[Nlys][Nleu][Nlys][Nrpe][Gly(N-piperonyl)][Nlys][Nleu][Nlys][Nlys][βAla]KC(Fluorescein(5-Mal))-NH2 / II: H-[Nlys][Nleu][Nlys][Nrpe][Gly(N-piperonyl)][Nlys][Nleu][Nlys][Nlys]; amide I:11-II:C; N-terminus assumed) | 11 | – | – | –
CC(C)CN(CC(=O)N(CCCCN)CC(=O)N(CCCCN)CC(=O)NCCCC[C@H](NC(=O)CCNC(=O)CN(CCCCN)C(=O)CN(CCCCN)C(=O)CN(CC(C)C)C(=O)CN(CCCCN)C(=O)CN(CC(C)C)C(=O)CN(CCCCN)C(=O)CN(Cc1ccco1)C(=O)CN(CCCCN)C(=O)CNCCc1c[nH]c2ccccc12)C(=O)N[C@@H](CSC1CC(=O)N(c2ccc3c(c2)C(=O)OC32c3ccc(O)cc3Oc3cc(O)ccc32)C1=O)C(N)=O)C(=O)CN(CCCCN)C(=O)CN(CC(C)C)C(=O)CN(CCCCN)C(=O)CN(Cc1ccco1)C(=O)CN(CCCCN)C(=O)CNCCc1c[nH]c2ccccc12 (some centres unmarked) [GU40E2] (I: H-[Gly(N(CH2)2(3-indolyl))][Nlys][NFurfurylGly][Nlys][Nleu][Nlys][Nleu][Nlys][Nlys][βAla]KC(Fluorescein(5-Mal))-NH2 / II: H-[Gly(N(CH2)2(3-indolyl))][Nlys][NFurfurylGly][Nlys][Nleu][Nlys][Nleu][Nlys][Nlys]; amide I:11-II:C; N-terminus assumed) | 2 | – | – | –
CC(C)CN(CC(=O)N(CCCCN)CC(=O)N(CCCCN)CC(=O)NCCCCCC(=O)NCCC(=O)N[C@@H](CCCCNC(=O)CN(CCCCN)C(=O)CN(CCCCN)C(=O)CN(CC(C)C)C(=O)CN(CCCCN)C(=O)CN(CC(C)C)C(=O)CN(CCCCN)C(=O)CN(Cc1ccco1)C(=O)CN(CCCCN)C(=O)CNCCc1c[nH]c2ccccc12)C(=O)N[C@@H](CSC1CC(=O)N(c2ccc3c(c2)C(=O)OC32c3ccc(O)cc3Oc3cc(O)ccc32)C1=O)C(N)=O)C(=O)CN(CCCCN)C(=O)CN(CC(C)C)C(=O)CN(CCCCN)C(=O)CN(Cc1ccco1)C(=O)CN(CCCCN)C(=O)CNCCc1c[nH]c2ccccc12 (some centres unmarked) [GU40E4] (I: H-[Gly(N(CH2)2(3-indolyl))][Nlys][NFurfurylGly][Nlys][Nleu][Nlys][Nleu][Nlys][Nlys][Ahx][βAla]KC(Fluorescein(5-Mal))-NH2 / II: H-[Gly(N(CH2)2(3-indolyl))][Nlys][NFurfurylGly][Nlys][Nleu][Nlys][Nleu][Nlys][Nlys]; amide I:12-II:C; N-terminus assumed) | 9 | – | – | –
CC(C)CN(CC(=O)N(CCCCN)CC(=O)N(CCCCN)CC(N)=O)C(=O)CN(CCCCN)C(=O)CN(CC(C)C)C(=O)CN(CCCCN)C(=O)CN(Cc1ccco1)C(=O)CN(CCCCN)C(=O)CNCCc1c[nH]c2ccccc12 [GU40E, Ntrp-Nlys-Nffa-Nlys-Nleu-Nlys-Nleu-Nlys-Nlys] (H-[Gly(N(CH2)2(3-indolyl))][Nlys][NFurfurylGly][Nlys][Nleu][Nlys][Nleu][Nlys][Nlys]-NH2) | – | Neither peptoid at any concentration tested evinced agonist activity; also recorded: None of the peptoids exhibited agonist activity | weak antagonists | binding to CD105 [2]: did not bind detectably; binding to GST [3]: did not bind detectably; binding after pre-incubation of immobilized receptor with unlabeled VEGF ([1]; fluoresceinated peptoid): almost no binding
Avastin: ultra-high affinity anti-VEGF antibody employed clinically [reference compound] | – | – | – | effect on VEGFR2 autophosphorylation (in words) ([4]; 1 μM, 1.3 nM VEGF): completely blocked
Nlys-Npip-Nleu-Nlys-Npip-Nlys-Nleu-Nlys-Nlys [GU40B] | – | None of the peptoids exhibited agonist activity | no effect | –
